Measured values taken from PubChem BioAssay AID179 (DTP/NCI, 2004).
Where “and” joins values, the source holds several entries; their conditions need not be identical. Equal entries are not always repeated. Calls of active or inactive are those of the source.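 The calls were made as follows: active = compounds giving half or more protection of infected cells from virus-caused growth loss, again on retest; inactive = the rest.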 Where a SMILES comes first, the peptide text is derived from it. [ ]: non-standard residue; d: D form. The star is where a group is joined. Cbz = O=C(OCc1ccccc1)*; Boc = CC(C)(C)OC(=O)*; Aib = CC(C)(N)C(=O)O; OBn = c1ccc(CO*)cc1; OtBu = CC(C)(C)O*; βAla = NCCC(=O)O

System: CEM cells HIV-1 protection, formazan growth assay
Experiment: NCI AIDS Antiviral Assay
Conditions: for IC50: measured here: growth of uninfected CEM cells
How it was run: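 Five concentrations of each compound were applied to infected and uninfected human CEM cells. Protection from HIV-1 was judged from growth measured with a soluble formazan assay.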

SMILES | EC50 [µM] | IC50 | outcome
C#CCCCOc1ncccn1 | > 200 | > 200 µM | 
COc1cc2oc3cc(OC)c(OC)c(CC=C(C)C)c3c(=O)c2c(O)c1CC=C(C)C | > 30.9 | > 30.9 µM | 
COc1nn(Cc2ccccn2)c2ccc([N+](=O)[O-])cc12 | > 200 | 135 µM | 
CC1=C(C(=O)NNC(=O)C[N+](C)(C)C)CC(C(=O)NNC(=O)C[N+](C)(C)C)=C(C)N1 | > 200 | 95.5 µM | 
Cn1c(COc2ccc(/C=N\NC(=O)c3ccc(C(=O)N/N=C/c4ccc(OCc5c[n+]6ccccc6n5C)cc4)cc3)cc2)c[n+]2ccccc12 | 4.57 | 9.55 µM | 
COc1c2c(nc3ccccc13)-c1cc(C(CC(=O)OC(C)(C)C)C(=O)OC(C)C)c(CO)c(=O)n1C2 (stereo unspecified) | > 28.8 | 0.479 µM | 
O=C1N(Cc2ccccc2)CC(O)CN1Cc1ccccc1 | > 200 | 174 µM | 
ClC/C=C\C[N+]12CN3CN(CN(C3)C1)C2 | > 200 | 24 µM | 
O=[N+]([O-])C1=C(c2ccccc2)SC(Br)=C(c2ccccc2)S1 | > 100 | 0.813 µM | 
C=COCCCOc1ccccc1 | > 200 | > 200 µM | 
Cn1c(/C=C(\O)c2ccccc2)nc2ccccc21 | > 105 | 83.2 µM | 
O=C(CCc1ccc(O)c(O)c1)NCCc1cc(O)c(O)c(O)c1 | > 200 | 5.01 µM | 
Cc1coc(C)c1C(=S)Nc1ccc(Cl)c(C(=O)OC(C)C)c1 | 0.282 | 38 µM | 
C1=CC2=CC=CC3c4nc5ccc6ccccc6c5nc4C(=C1)C23 (stereo unspecified) | > 200 | > 200 µM | 
COC(=O)c1ccc(C)cc1CC1Cc2ccc(C)cc2C1=O (stereo unspecified) | > 200 | 4.79 µM | 
CCOC(=O)C(NC(=O)CC)(Nc1ccccc1F)C(F)(F)F (stereo unspecified) | > 200 | > 200 µM | 
N=C(N)c1ccc(N=Nc2cc(N=Nc3ccc(C(=N)N)cc3)c(O)cc2O)cc1 | 85.1 | > 100 µM | 
CN1OC(CO)CC12C1CC3CC(C1)CC2C3 (stereo unspecified) | > 1050 | 537 µM | 
Cc1cccc(NC(=O)CC2C(=O)Nc3ccccc3S2(=O)=O)c1C (stereo unspecified) | > 5.62 | > 5.62 µM | 
CCN(CC)CC(=O)Nc1cc(C)ccc1Cl | > 200 | > 200 µM | 
CC(=O)NC(NCCN)(c1ccccc1)c1ccccc1 | > 200 | > 200 µM | 
C1=C[C@]2(CCC13OCCO3)COc1ccccc12 | > 200 | 18.6 µM | 

SMILES | EC50 [µM] | IC50 | outcome
CC(C)(C)OC(=O)CC(NC(=O)OC(C)(C)C)C(=O)NC(CCCCNC(=O)OCc1ccccc1)C(=O)NC(C)(C)C(=O)NCCC(=O)OCc1ccccc1 (stereo unspecified) (Boc-D(OtBu)K(Cbz)[Aib][βAla]-OBn; configuration not given here) | > 100 | > 100 µM | 
Cc1c(C)c2c(c(N)c1C#N)C(=O)N(NC(=O)c1ccccc1)C2=O | > 200 | 186 µM | 
C=CCNC(=S)/N=C/C(C(=O)Nc1ccc(Cl)cc1)=C(\C)O | > 200 | 129 µM | 
CCCNc1nc2c(c(=O)n1-c1ccccc1)C=C(C(=O)OC)CCN2S(=O)(=O)c1ccc(C)cc1 | > 14.1 | > 14.1 µM | 
O=P1(c2ccccc2)Nc2cc(Cl)c(Cl)cc2N1 | > 200 | 64.6 µM | 
CC(=Nc1ccc(Cl)cc1)c1ccncc1 |  |  | inactive
O=C(CC(=O)N1N=C(c2ccccc2)C(N=Nc2ccc(Cl)cc2)C1=O)Nc1ccccc1Cl (stereo unspecified) | > 38 | > 38 µM | 
Cc1ccc(N(C)S(=O)(=O)c2ccc([N+](=O)[O-])cc2)cc1 | > 200 | 178 µM | 
CCOC(=O)CN1CCC(C(O)c2cc3ccccc3[nH]2)CC1 (stereo unspecified) | > 537 | 525 µM | 
CC(=O)OC1CCn2c1nc1cc([N+](=O)[O-])c(C)cc12 (stereo unspecified) | > 200 | > 200 µM | 
N/N=C(/Cc1ccccc1)NNO | > 525 | 174 µM | 
C=C1C(OC(=O)c2ccccc2)C2[C@@H](OC(=O)CC)[C@@H](C)C[C@]2(O)C(=O)[C@@H](C)/C=C/C(C)(C)C(=O)C(O)[C@H]1OC(=O)C(C)C (stereo partly specified) |  |  | inactive
O=c1c(O)c(-c2ccc(O)c(O)c2)oc2cc(O)ccc12 | > 550 | 55 µM and 25.7 µM | 
COC1=CC(=O)c2c(O)c3c(c(O)c2C1=O)C[C@](C)(O)C[C@@H]3O |  |  | inactive
CC(NC(=O)CNC(=O)C(N)CO)C(=O)NC(CCC(=O)O)C(=O)NC(CCCCN)C(=O)NC(CO)C(=O)NC(CCCCN)C(=O)NC(CCCCN)C(=O)NC(CCCCN)C(=O)NCC(=O)NC(CO)C(=O)NC(CC(N)=O)C(=O)NC(C)C(=O)NC(Cc1cnc[nH]1)C(=O)NC(CO)C(=O)O (stereo unspecified) (H-SGAEKSKKKGSNAHS-OH; configuration not given here) |  |  | inactive
c1ccc2c3nnc(c2c1)SCCCSc1nnc(c2ccccc12)SCCCS3 | > 200 | > 200 µM | 
CCOc1ccc(-n2nnc3c(N)nc(N)nc32)cc1 | > 200 | > 200 µM | 
Cc1ccc2c(c1)-c1[nH]c3ccccc3c1CS2 |  |  | inactive
O=C(CC1(O)C(=O)Nc2ccc([N+](=O)[O-])cc21)c1ccc2ccccc2c1 (stereo unspecified) | > 100 | > 100 µM | 
CC(C)CC[CH2][Pb]([CH2]CCC(C)C)([CH2]CCC(C)C)[O]C(=O)C(Cl)(Cl)Cl | > 200 | 3.09 µM | 
CC(C)n1nnnc1-c1ccccc1 | > 200 | > 200 µM | 
